Test results: patent US10548898B2, “Quinazoline compounds” (Gilead Sciences, Inc., priority 2014, dated 2020)
Like-named read-outs stand apart in the source and are kept apart here.

Columns and labels:
Assay type in all cases: cell-based
[1] = system: HIV-1 reverse transcriptase mutant Y181C; experiment: High throughput cytopathic effect assay in MT-4 cells, Y181C mutant; details: for EC50: Human immunodeficiency virus 1, MT4, 120 h, read-out: MT4 EC50 (nM) against Y181C; for FC against mutant Y181C: fold change of MT4 EC50 versus w.t. assay 2
Description: (§1) Compounds were screened in a miniaturized, high throughput cytopathic effect assay for activity against HIV-1 HBX2 (wild type) and HIV-1 reverse transcriptase mutants K103N and Y181C. In Tables 1 and 2 below. “w.t.” refers to results of the tested compounds run with the wildtype 1 and “w.t, assay 2” refers results of the tested compounds run with the wildtype on the same day as the testing of the compounds with the mutants. Thus, “w.t, assay 2” was run under the same conditions as the testing of the compounds with the mutants and provides a direct comparison with the results from the testing with the mutants.
(§2) Ten-point serial dilutions of compounds with half-log step size were generated in DMSO. AZT ([…]) was used as the positive control and DMSO as the negative control. The Echo acoustic dispenser was used to deliver 200 nL of serially diluted compound into sterile 384 well tissue culture assay plates. Two million MT-4 cells were incubated with each of the 3 viruses at MOI of 0.0005 in separate 1 mL infection tubes for 1 hour at 37° C. The cells were diluted in cell culture medium (RPMI+10% FBS) to 50.000 cells/mL. The infected cells were added to 384 well assay plates containing serially dilute compounds. Assay plates were incubated for 5 days in a humidified incubator set at 37° C. and 5% CO2. To measure the cytopathic effect of HIV, 40 μL Cell TiterGlo was added to each well and the resulting luminescence signal is read with the Envision plate reader (Perkin Elmer). Data were normalized to positive and negative controls in each plate and expressed as % CPE Protection. EC50 values were defined as the compound concentration that caused a 50% decrease in luminescence signal, and were calculated by non-linear regression using Pipeline Pilot software by applying a four parameter fit equation (Accelrys, San Diego, Calif.).

HIV-1 HBX2 (wild type) = experiment: High throughput cytopathic effect assay in MT-4 cells, wild type HIV-1
Description: as §1, §2

[2] = system: HIV-1 reverse transcriptase mutant K103N; experiment: High throughput cytopathic effect assay in MT-4 cells, K103N mutant; details: for EC50: Human immunodeficiency virus 1, MT4, 120 h, read-out: MT4 EC50 (nM) against K103N; for FC against mutant K103N: fold change of MT4 EC50 versus w.t. assay 2
Description: as §1, §2

[3] = Human immunodeficiency virus 1, MT4, 120 h, MT-4 cells, 5 days, cytopathic effect, Cell TiterGlo, read-out: MT4 EC50 (nM) against w.t.
[4] = Human immunodeficiency virus 1, MT4, read-out: MT4 EC50 (nM) against w.t. assay 2

Structure (SMILES) | EC50 [1] [nM] | FC against mutant Y181C [1] | EC50 (HIV-1 HBX2 (wild type); [3]) [nM] | EC50 (HIV-1 HBX2 (wild type); [4]) [nM] | EC50 [2] [nM] | FC against mutant K103N [2]
Cc1cc(/C=C/C#N)cc(C)c1-c1cccc2c(=O)[nH]c(Nc3ccc(C#N)cc3)nc12 [Compound 41, (E)-4-((8-(4-(2-Cyanovinyl)-2,6-dimethylphenyl)-4-oxo-3,4-dihydroquinazolin-2-yl)amino)benzonitrile] | 32.8 | 3.4 | 6.3 | 9.5 | 15.7 | 1.6
Cc1cc(/C=C/C#N)cc(C)c1-c1cc(Br)cc2c(N)nc(Nc3ccc(C#N)cc3)nc12 [Compound 25, (E)-4-((4-Amino-6-bromo-8-(4-(2-cyanovinyl)-2,6-dimethylphenyl)quinazolin-2-yl)amino)benzonitrile] | 160 | 5.6 | 39.1 | 28.3 | 44.1 | 1.6
CCc1cc(/C=C/C#N)cc(CC)c1-c1cccc2c(N)nc(Nc3ccc(C#N)cn3)nc12 [Compound 36, (E)-6-((4-Amino-8-(4-(2-cyanovinyl)-2,6-diethylphenyl)quinazolin-2-yl)amino)nicotinonitrile] | 87.3 | 8.3 | 7.7 | 10.5 | 10.1 | 1.0
CC(C#N)=Cc1cc(C)c(-c2cccc3c(N)nc(Nc4ccc(C#N)cc4)nc23)c(C)c1 (racemic) [Compound 40, 4-((4-Amino-8-(4-(2-cyanoprop-1-en-1-yl)-2,6-dimethylphenyl)quinazolin-2-yl)amino)benzonitrile] | 36.1 | 3.7 | 6.8 | 9.9 | 16.3 | 1.7
Cc1cc(/C=C/C#N)cc(C)c1-c1cccc2c(NCC3CC3)nc(Nc3ccc(C#N)cc3)nc12 [Compound 6, (E)-4-((8-(4-(2-Cyanovinyl)-2,6-dimethylphenyl)-4-((cyclopropylmethyl)amino)quinazolin-2-yl)amino)benzonitrile] | 470 | 5.7 | 99.3 | 82.6 | 81.1 | 1.0
Cc1cc(/C=C/C#N)cc(C)c1-c1cc(Cl)cc2c(N)nc(Nc3ccc(C#N)cc3)nc12 [Compound 19, (E)-4-((4-Amino-6-chloro-8-(4-(2-cyanovinyl)-2,6-dimethylphenyl)quinazolin-2-yl)amino)benzonitrile] | 79.7 | 2.7 | 27.5 | 29 | 30.3 | 1.0
Cc1cc(Nc2nc(N)c3cccc(-c4c(C)cc(/C=C/C#N)cc4C)c3n2)nc(C)c1C#N [Compound 15, (E)-6-((4-Amino-8-(4-(2-cyanovinyl)-2,6-dimethylphenyl)quinazolin-2-yl)amino)-2,4-dimethylnicotinonitrile] | 180 | 5.4 | 22.6 | 33.2 | 72.2 | 2.2
C/C(=C\C#N)c1cc(C)c(-c2cccc3c(N)nc(Nc4ccc(C#N)cc4)nc23)c(C)c1 [Compound 38, (E)-4-((4-Amino-8-(4-(1-cyanoprop-1-en-2-yl)-2,6-dimethylphenyl)quinazolin-2-yl)amino)benzonitrile] | 18.6 | 2.4 | 6 | 7.9 | 7 | 0.9
Cc1cc(/C=C/C#N)cc(C)c1-c1cc([N+](=O)[O-])cc2c(N)nc(Nc3ccc(C#N)cn3)nc12 [Compound 22, (E)-6-((4-Amino-8-(4-(2-cyanovinyl)-2,6-dimethylphenyl)-6-nitroquinazolin-2-yl)amino)nicotinonitrile] | > 500 | >5.7 | 69.3 | 87.5 | 101 | 1.2
N#C/C=C/c1cc(F)c(-c2cccc3c(N)nc(Nc4ccc(C#N)cc4)nc23)c(F)c1 [Compound 8, (E)-4-((4-Amino-8-(4-(2-cyanovinyl)-2,6-difluorophenyl)quinazolin-2-yl)amino)benzonitrile] | 21.7 | 7.8 | 2.7 | 2.8 | 3.7 | 1.3
COc1cc(/C=C/C#N)cc(OC)c1-c1cccc2c(N)nc(Nc3ccc(C#N)cc3)nc12 [Compound 32, (E)-4-((4-Amino-8-(4-(2-cyanovinyl)-2,6-dimethoxyphenyl)quinazolin-2-yl)amino)benzonitrile] | 10.5 | 8.3 | 1.9 | 1.3 | 11.5 | 1.2
Cc1cc(/C=C/C#N)cc(C)c1-c1cc(F)cc2cnc(Nc3ccc(C#N)cn3)nc12 [Compound 14, (E)-6-((8-(4-(2-Cyanovinyl)-2,6-dimethylphenyl)-6-fluoroquinazolin-2-yl)amino)nicotinonitrile] | 122 | 9.6 | 8.1 | 12.7 | 15.1 | 1.2
Cc1cc(/C=C/C#N)cc(C)c1-c1cccc2c(N)nc(Nc3ccc(C#N)c(C)n3)nc12 [Compound 16, (E)-6-((4-Amino-8-(4-(2-cyanovinyl)-2,6-dimethylphenyl)quinazolin-2-yl)amino)-2-methylnicotinonitrile] | 42.6 | 5.7 | 6.3 | 7.5 | 12.5 | 1.7
CCCCNc1nc(Nc2ccc(C#N)cc2)nc2c(-c3c(C)cc(/C=C/C#N)cc3C)cccc12 [Compound 7, (E)-4-((4-(Butylamino)-8-(4-(2-cyanovinyl)-2,6-dimethylphenyl)quinazolin-2-yl)amino)benzonitrile] | > 500 | >4.3 | 122 | 117 | 130 | 1.1
Cc1cc(Nc2nc(N)c3cccc(-c4c(C)cc(/C=C/C#N)cc4C)c3n2)ncc1C#N [Compound 18, (E)-6-((4-Amino-8-(4-(2-cyanovinyl)-2,6-dimethylphenyl)quinazolin-2-yl)amino)-4-methylnicotinonitrile] | 112 | 8.6 | 21.9 | 13.1 | 12.1 | 0.9
CNc1nc(Nc2ccc(C#N)cn2)nc2c(-c3c(C)cc(/C=C/C#N)cc3C)cccc12 [Compound 31, (E)-6-((8-(4-(2-Cyanovinyl)-2,6-dimethylphenyl)-4-(methylamino)quinazolin-2-yl)amino)nicotinonitrile] | 432 | 50.5 | 10.5 | 8.6 | 17.6 | 2.1
Cc1cc(C#N)cnc1Nc1nc(N)c2cccc(-c3c(C)cc(/C=C/C#N)cc3C)c2n1 [Compound 17, (E)-6-((4-Amino-8-(4-(2-cyanovinyl)-2,6-dimethylphenyl)quinazolin-2-yl)amino)-5-methylnicotinonitrile] | > 500 | >2.6 | 229 | 190 | 151 | 0.8
Cc1cc(/C=C/C#N)cc(C)c1-c1cc(F)cc2c(N)nc(Nc3cnc(C#N)cn3)nc12 [Compound 26, (E)-5-((4-Amino-8-(4-(2-cyanovinyl)-2,6-dimethylphenyl)-6-fluoroquinazolin-2-yl)amino)pyrazine-2-carbonitrile] | 27.2 | 13.5 | 2.7 | 2 | 2.4 | 1.2
CCc1cc(/C=C/C#N)cc(CC)c1-c1cccc2c(N)nc(Nc3ccc(C#N)cc3)nc12 [Compound 35, (E)-4-((4-Amino-8-(4-(2-cyanovinyl)-2,6-diethylphenyl)quinazolin-2-yl)amino)benzonitrile] | 38.6 | 2.3 | 12.8 | 16.8 | 16.9 | 1.0
Cc1cc(/C=C/C#N)cc(C)c1-c1cc(N)cc2c(N)nc(Nc3ccc(C#N)cn3)nc12 [Compound 23, (E)-6-((4,6-Diamino-8-(4-(2-cyanovinyl)-2,6-dimethylphenyl)quinazolin-2-yl)amino)nicotinonitrile] |  |  | 8.7 |  |  | 
